# In patent publication US10618903B2, “Heteroaryl substituted aminopyridine compounds” (BRISTOL-MYERS SQUIBB COMPANY, priority 2015, dated 2020):
# Key:
# [1] = biological target: IRAK4 (Homo sapiens (Human), UniProt Q9NWZ3); assay: IRAK4 Inhibition Assay; assay type: biochemical; conditions: ATP 500 μM; IRAK4 0.6 nM
# In short: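 Readout: electrophoretic (LabChip) separation of fluorescent peptide substrate from phosphorylated product after EDTA quench. Reactions ran 60 min at room temperature with 0.6 nM IRAK4, 1.5 μM peptide and 500 μM ATP; inhibition referenced to no-enzyme (100%) and vehicle (0%) controls.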
# [2] = Caco Permeability Assay; assay type: in vitro ADME; conditions: human, Caco-2, Caco-2 cells, 3 μM compound
# Protocol: Thirteen to 27 days prior to assay, Caco-2 cells were seeded onto collagen-coated polycarbonate filter membranes in 24-well transwell plates at a density of 1.45×10^5 cells/cm^2, approximately 4.8×10^4 cells per well. The cells were grown in a culture medium consisting of DMEM supplemented with 10% fetal bovine serum, 10 mM HEPES, 1% nonessential amino acids, 2 mM L-glutamine, 100 U/mL penicillin-G, and 100 μg/mL streptomycin. The culture medium was replaced every 3 days and the cells were maintained at 37° C. in a 95% relative humidity and 5% CO2 atmosphere. The cells were evaluated for tight junction formation just prior to assay. The test compound was solubilized to 10 mM in 100% DMSO and diluted to 3 μM in assay buffer. Permeability studies were initiated by adding 200 μL assay buffer plus/minus compound to the apical transwell compartment and 600 μL assay buffer plus/minus compound to the basolateral compartment of the 24-well transwell low-binding cluster plate. For apical-to-basolateral (A to B) permeability (absorptive direction), buffer containing compound was placed in the apical compartment (donor wells), while buffer alone was placed in the corresponding basolateral compartments (receiver wells). For basolateral-to-apical (B to A) permeability (secretive direction), buffer containing compound was placed in the basolateral compartment (donor wells), while buffer alone was placed in the corresponding apical compartments (receiver wells). Transwells were then incubated for 2 hours at 37° C. in a 95% relative humidity and 5% CO2 atmosphere with gentle agitation. Following incubation, 100 μL was removed from each apical and basolateral compartment and transferred to 96-well low binding plates that had been previously loaded with 100 µL/well of acetonitrile containing 250 nM propranolol, 250 nM diclofenac, and 500 nM tolbutamide as internal standards. The samples were subsequently analyzed by LC-MS/MS to determine concentrations of compound.
# [3] = system: IL-6 levels in human whole blood stimulated with a TLR2 agonist; assay: IRAK4 Whole Blood Assay (lipoteichoic acid/TLR2-stimulated IL-6); assay type: cell-based; conditions: lipoteichoic acid 10 μg/mL, IL-6 readout
# In short: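 IL-6 was quantified by cytometric bead assay in supernatants of human blood (ACD-A) stimulated for 5 h with lipoteichoic acid at 10 μg/mL final. Compound exposure preceded stimulation for 60 min at 37 °C, 5% CO2.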
# IRAK4, sequence (Q9NWZ3 whole entry): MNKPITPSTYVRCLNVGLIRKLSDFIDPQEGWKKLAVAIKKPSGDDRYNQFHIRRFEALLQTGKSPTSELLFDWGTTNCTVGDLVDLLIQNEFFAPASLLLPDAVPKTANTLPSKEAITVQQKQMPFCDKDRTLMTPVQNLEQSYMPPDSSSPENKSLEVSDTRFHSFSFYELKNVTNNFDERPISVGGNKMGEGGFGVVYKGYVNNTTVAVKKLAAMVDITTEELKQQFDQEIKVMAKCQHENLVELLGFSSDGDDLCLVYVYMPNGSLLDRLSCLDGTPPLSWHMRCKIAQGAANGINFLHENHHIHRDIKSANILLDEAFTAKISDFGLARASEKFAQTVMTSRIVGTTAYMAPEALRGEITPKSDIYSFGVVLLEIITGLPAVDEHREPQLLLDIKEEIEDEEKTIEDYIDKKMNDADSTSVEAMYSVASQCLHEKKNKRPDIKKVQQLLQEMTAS
IC50 [1] [nM],"Papp at 2 h, 3 µM [2] [×10⁻⁶ cm/s]",EC50 ([3]; Homo sapiens) [nM],EC50 [3] [nM],SMILES
7,,380,,"CC(C)(O)[C@H](F)CNC(=O)c1cnc(-c2cnc3cc(C#N)cnn23)cc1Nc1cnn(C(F)F)c1 [Example 273, (R)-6-(7-cyanoimidazo[1,2-b]pyridazin-3-yl)-4-((1-(difluoromethyl)-1H-pyrazol-4-yl)amino)-N-(2-fluoro-3-hydroxy-3-methylbutyl)nicotinamide]"
9,,590,,"Cn1cc(Nc2cc(-c3cnc4cc(C#N)cnn34)ncc2C(=O)NC[C@@H](F)C(C)(C)O)cn1 [Example 274, (R)-6-(7-cyanoimidazo[1,2-b]pyridazin-3-yl)-N-(2-fluoro-3-hydroxy-3-methylbutyl)-4-((1-methyl-1H-pyrazol-4-yl)amino)nicotinamide]"
1,,440,,"CC(C)(O)[C@H](F)CNC(=O)c1cnc(-c2cnc3cc(Cl)cnn23)cc1Nc1cnn(CC(F)(F)F)c1 [Example 275, (R)-6-(7-chloroimidazo[1,2-b]pyridazin-3-yl)-N-(2-fluoro-3-hydroxy-3-methylbutyl)-4-((1-(2,2,2-trifluoroethyl)-1H-pyrazol-4-yl)amino)nicotinamide]"
2,,80,,"CC(C)(O)[C@H](F)CNC(=O)c1cnc(-c2cnc3cc(C#N)cnn23)cc1Nc1cnn(CC(F)(F)F)c1 [Example 276, (R)-6-(7-cyanoimidazo[1,2-b]pyridazin-3-yl)-N-(2-fluoro-3-hydroxy-3-methylbutyl)-4-((1-(2,2,2-trifluoroethyl)-1H-pyrazol-4-yl)amino)nicotinamide]"
2,,710,,"CC(C)(F)Cn1cc(Nc2cc(-c3cnc4cc(C#N)cnn34)ncc2C(=O)NC[C@@H](F)C(C)(C)F)cn1 [Example 282, (R)-6-(7-cyanoimidazo[1,2-b]pyridazin-3-yl)-N-(2,3-difluoro-3-methylbutyl)-4-((1-(2-fluoro-2-methylpropyl)-1H-pyrazol-4-yl)amino)nicotinamide]"
2,,340,,"CC(C)(O)[C@H](F)CNC(=O)c1cnc(-c2cnc3cc(Cl)cnn23)cc1Nc1cnn(CCCF)c1 [Example 283, (R)-6-(7-chloroimidazo[1,2-b]pyridazin-3-yl)-N-(2-fluoro-3-hydroxy-3-methylbutyl)-4-((1-(3-fluoropropyl)-1H-pyrazol-4-yl)amino)nicotinamide]"
3,,370,,"CC(C)(O)[C@H](F)CNC(=O)c1cnc(-c2cnc3cc(Cl)cnn23)cc1Nc1cnn(C2CCC2)c1 [Example 285, (R)-6-(7-chloroimidazo[1,2-b]pyridazin-3-yl)-4-((1-cyclobutyl-1H-pyrazol-4-yl)amino)-N-(2-fluoro-3-hydroxy-3-methylbutyl)nicotinamide]"
9,,390,,"CC(C)(O)[C@H](F)CNC(=O)c1cnc(-c2cnc3cc(C#N)cnn23)cc1N[C@@H]1CCN(c2ncc(F)cn2)C1 [Example 288, 6-(7-cyanoimidazo[1,2-b]pyridazin-3-yl)-N—((R)-2-fluoro-3-hydroxy-3-methylbutyl)-4-(((R)-1-(5-fluoropyrimidin-2-yl)pyrrolidin-3-yl)amino)nicotinamide]"

# The next lines start with the compound.
SMILES,IC50 [1] [nM],"Papp at 2 h, 3 µM [2] [×10⁻⁶ cm/s]",EC50 ([3]; Homo sapiens) [nM],EC50 [3] [nM]
"CC(C)OC1CC(Nc2cc(-c3cnn4cc(Cl)cnc34)ncc2C(=O)NC[C@@H](F)C(C)(C)O)CC1(F)F (single isomer, unassigned) [Example 15]",4,6.5,660,
"CC(C)(O)[C@H](F)CNC(=O)c1cnc(-c2cnn3cc(Cl)cnc23)cc1NC1COCC1(F)F (single isomer, unassigned) [Example 19]",3,4.9,,620
"CC(C)Nc1cc(-c2cnn3cc(Cl)cnc23)ncc1C(=O)NC[C@@H](F)C(C)(C)O [Example 1, (R)-6-(6-chloropyrazolo[1,5-a]pyrimidin-3-yl)-N-(2-fluoro-3-hydroxy-3-methylbutyl)-4-(isopropylamino)nicotinamide]",3,24.8,400,
"CC(=O)N[C@H]1CC[C@H](NC(=O)c2cnc(-c3cnn4cc(C#N)cnc34)cc2NC(C)C)CC1 [Example 89, N-((1r,4r)-4-acetamidocyclohexyl)-6-(6-cyanopyrazolo[1,5-a]pyrimidin-3-yl)-4-(isopropylamino)nicotinamide]",,< 1.5,2960,
"CC(C)(F)CNc1cc(-c2cnn3cc(C#N)cnc23)ncc1C(=O)NC[C@@H](F)C(C)(C)O [Example 91, (R)-6-(6-cyanopyrazolo[1,5-a]pyrimidin-3-yl)-4-((2-fluoro-2-methylpropyl)amino)-N-(2-fluoro-3-hydroxy-3-methylbutyl)nicotinamide]",,5,2970,
"CC(C)(O)[C@H](F)CNC(=O)c1cnc(-c2cnn3cc(C#N)cnc23)cc1NC1CCC1 [Example 96, (R)-6-(6-cyanopyrazolo[1,5-a]pyrimidin-3-yl)-4-(cyclobutylamino)-N-(2-fluoro-3-hydroxy-3-methylbutyl)nicotinamide]",,8.3,270,
"CC(C)(O)[C@H](F)CNC(=O)c1cnc(-c2cnn3cc(C#N)cnc23)cc1NC1CCC(F)(F)C1O (stereo partly drawn) [Example 107, 6-(6-cyanopyrazolo[1,5-a]pyrimidin-3-yl)-4-((3,3-difluoro-2-hydroxycyclopentyl)amino)-N—((R)-2-fluoro-3-hydroxy-3-methylbutyl)nicotinamide]",,< 1.5,430,
"Cn1cc(Nc2cc(-c3cnn4cc(Cl)cnc34)ncc2C(=O)NCCC(C)(C)O)cn1 [Example 255, 6-(6-chloropyrazolo[1,5-a]pyrimidin-3-yl)-N-(3-hydroxy-3-methylbutyl)-4-((1-methyl-1H-pyrazol-4-yl)amino)nicotinamide]",5,,720,
"Cn1cc(Nc2cc(-c3cnn4cc(Cl)cnc34)ncc2C(=O)N[C@H]2CC[C@H](C(C)(C)O)CC2)cn1 [Example 256, 6-(6-chloropyrazolo[1,5-a]pyrimidin-3-yl)-N-((1r,4r)-4-(2-hydroxypropan-2-yl)cyclohexyl)-4-((1-methyl-1H-pyrazol-4-yl)amino)nicotinamide]",3,,790,
"COC(=O)N[C@H]1CC[C@H](NC(=O)c2cnc(-c3cnn4cc(Cl)cnc34)cc2Nc2cnn(C)c2)CC1 [Example 257, methyl ((1r,4r)-4-(6-(6-chloropyrazolo[1,5-a]pyrimidin-3-yl)-4-((1-methyl-1H-pyrazol-4-yl)amino)nicotinamido)cyclohexyl)carbamate]",14,,710,
"CC(C)(O)[C@H]1CC[C@H](NC(=O)c2cnc(-c3cnc4cc(Cl)cnn34)cc2Nc2cnn(CC(F)F)c2)CC1 [Example 264, 6-(7-chloroimidazo[1,2-b]pyridazin-3-yl)-4-((1-(2,2-difluoroethyl)-1H-pyrazol-4-yl)amino)-N-((1r,4r)-4-(2-hydroxypropan-2-yl)cyclohexyl)nicotinamide]",2,,910,
"CC(F)(F)Cn1ccc(Nc2cc(-c3cnc4cc(C#N)cnn34)ncc2C(=O)NC[C@@H](F)C(C)(C)O)n1 [Example 268, (R)-6-(7-cyanoimidazo[1,2-b]pyridazin-3-yl)-4-((1-(2,2-difluoropropyl)-1H-pyrazol-3-yl)amino)-N-(2-fluoro-3-hydroxy-3-methylbutyl)nicotinamide]",3,,960,
"CC(F)(F)Cn1cc(Nc2cc(-c3cnc4cc(C#N)cnn34)ncc2C(=O)NC[C@@H](F)C(C)(C)F)cn1 [Example 269, (R)-6-(7-cyanoimidazo[1,2-b]pyridazin-3-yl)-N-(2,3-difluoro-3-methylbutyl)-4-((1-(2,2-difluoropropyl)-1H-pyrazol-4-yl)amino)nicotinamide]",2,,560,
"Cn1cc(Nc2cc(-c3cnc4cc(Cl)cnn34)ncc2C(=O)NC[C@@H](F)C(C)(C)O)cn1 [Example 271, (R)-6-(7-chloroimidazo[1,2-b]pyridazin-3-yl)-N-(2-fluoro-3-hydroxy-3-methylbutyl)-4-((1-methyl-1H-pyrazol-4-yl)amino)nicotinamide]",4,,170,
